Data reported in paper PMC10409515, “Enzymatic properties of alcohol dehydrogenase PedE_M.s. derived from Methylopila sp. M107 and its broad metal selectivity” (Frontiers in Microbiology, 2023).

Test system: T1, PedE_M.s.
T1 construct: gene pedE; C-terminal 8xHis tag; codon-optimised gene expressed in Methylorubrum extorquens AM1 (quadruple mutant) with Ca2+; Ni-NTA purified; signal peptide not discussed
Test: PMS-mediated DCPIP reduction at […] nm; Michaelis-Menten fit
Format: biochemical
Settings: PMS 1 mM, DCPIP 150 uM, 45 mM NH4Cl, 100 mM Tris-HCl pH 9.0; optimal conditions (30 °C optimum; general assay text says about 26 °C); Ca2+-PQQ enzyme; read-out: Methylopila sp. M107 / Km

**Q.** `CCCCO` [Butanol] was tested. Which Km did it give?
**A.** Its Km is 39 ± 15 µM.

**Q.** For `CCO` [Ethanol], which Km is on record?
**A.** Its Km is 28 ± 6 µM.

**Q.** For `C=O` [Formaldehyde], which Km is on record?
**A.** Its Km is 39 ± 21 µM.

**Q.** For `CCCCCCO` [Hexanol], which Km is on record?
**A.** The Km was 79 ± 14 µM.

**Q.** Which Km does the source give for `CC(C)O` [Isopropanol] here?
**A.** The Km was 35 ± 12 µM.

**Q.** Which Km does the source give for `CO` [Methanol] here?
**A.** Its Km is 25 ± 6 µM.

**Q.** How did the Km turn out when `CCCCCO` [Pentanol] was run?
**A.** The Km was 49 ± 14 µM.

**Q.** For `CCCO` [Propanol], which Km is on record?
**A.** Its Km is 25 ± 6 µM.
